Consider 1 compound from patent US20140336248A1, “THERAPEUTIC COMPOSITIONS AND RELATED METHODS OF USE” (priority 2011, published 2014).

Holding throughout (format): in vivo, mouse
Series [1] concerns ICR mice. As to the kind of experiment: Tolerability 0.3, 0.6, 1.0 mg/kg IV in 1% ethanol/4% propylene glycol/5% Solutol HS 15 (Example H). The settings on record: male ICR mice. The protocol:
Injectable salinomycin compositions were prepared as follows: A) 0.2 mg/mL composition: 1.01 mg of salinomycin sodium was added to 50 μL ethanol and vortexed for 1 minute to yield a clear solution. 200 μL of propylene glycol was then added and vortexed for 1 minute, yielding a clear solution. To this solution was next added 250 μL Solutol® HS 15, with vortexing for 1 minute and sonicating for 1 minute, to yield a clear solution.
(§1) Eight male ICR mice (Sino-British SIPPR/BK Lab Animal Ltd, Shanghai, China) were assigned to control and treatment groups. […] The individual animal number marked on the tail, and study number comprised a unique identification for each animal. Animal identification was verified during the course of the study. The animals were housed two per cage in stainless steel suspended cage in an environmentally controlled room. SLACOM (Rodent Diet #20110615029, Shanghai SLAC Laboratory Animal Co. Ltd.) was available ad libitum. Temperature and humidity were monitored and recorded twice daily.
(§2) Each composition and the vehicle (control) were administered once daily to each of two mice via intravenous bolus injection for 5 consecutive days. The dose levels for the treated groups and the control group are in the below table. Individual doses were based on the most recent body weight.
(§3) Body weights for all animals were measured and recorded at receipt, prior to randomization, and once daily during the study. Body weight change was calculated for mean value of animals relative to Day 1 mean body weight value.

Series [2] concerns ICR mice. As to the kind of experiment: Tolerability IV in 10% ethanol/10% Solutol HS 15, 5 days (Example K). The following applies: for Clinical observations: post dosage. The protocol:
Injectable salinomycin compositions were prepared as follows: 0.6 mg/mL stock solution: 1.2 mg of salinomycin sodium was added to 200 μL ethanol and vortexed for 2 minutes and sonicated for 30 seconds to yield a clear solution. To this solution was next added 200 μL Solutol® HS 15, with vortexing for 2 minutes. Finally, 1.6 mL water was added to produce a clear stock solution of 0.6 mg/mL salinomycin sodium.
(§4) Six male ICR mice (Sino-British SIPPR/BK Lab Animal Ltd, Shanghai, China) were assigned to control and treatment groups. […] The individual animal number marked on the tail, and study number comprised a unique identification for each animal. Animal identification was verified during the course of the study. The animals were housed two per cage in stainless steel suspended cage in an environmentally controlled room. SLACOM (Rodent Diet #20110615029, Shanghai SLAC Laboratory Animal Co. Ltd.) was available ad libitum. Temperature and humidity were monitored and recorded twice daily.
as §2, §3

The test system of series [3] is ICR mice. As to the kind of experiment: Tolerability IV in 5% ethanol/15% Solutol HS 15, 5 days (Example L). The following applies: for Clinical observations: one animal. The protocol:
Injectable salinomycin compositions were prepared as follows: 0.6 mg/mL stock solution: 1.2 mg of salinomycin sodium was added to 100 μL ethanol and vortexed for 2 minutes and sonicated for 2 minutes to yield a clear solution. To this solution was next added 300 μL Solutol® HS 15, with vortexing for 1 minute. Finally, 1.6 mL water was added to produce a clear stock solution of 0.6 mg/mL salinomycin sodium.
as §4, §2, §3

The test system of series [4] is ICR mice. As to the kind of experiment: Tolerability 0.1, 0.3, 1.0, 3.0 mg/kg IV in 5% ethanol/15% Solutol HS 15, 4 days (Example N). The protocol:
as §1, with “Using the techniques described above in Example A, an aqueous vehicle comprising 5% ethanol (v/v) and 15% Solutol® HS 15 (v/v) was prepared. An appropriate amount of salinomycin sodium was dissolved into the vehicle to make solutions having concentrations of 0.02, 0.06, 0.2, and 0.3 mg/mL. Ten male ICR” for “Eight male ICR”, “animal number was marked on” for “animal number marked on”
(§5) Each composition and the vehicle (control) were administered once daily to each of two mice via intravenous bolus injection for 4 consecutive days. The dose levels for the treated groups and the control group are in the below table. Individual doses were based on the most recent body weight.
as §3

Series [5] concerns ICR mice. As to the kind of experiment: Tolerability 0.1, 0.3, 1.0 mg/kg IV in 1% ethanol/4% propylene glycol/5% Solutol HS 15, 4 days (Example P). The protocol: as §1, with “Using the techniques described above in Example A, an aqueous vehicle comprising 1% ethanol (v/v), 4% propylene glycol (v/v) and 5% Solutol® HS 15 (v/v) was prepared. An appropriate amount of salinomycin sodium was dissolved into the vehicle to make solutions having concentrations of 0.02, 0.06, and 0.2 mg/mL. Eight male” for “Eight male”, “animal number was marked on” for “animal number marked on”
as §5, §3

In series [6] the test system is ICR mice. As to the kind of experiment: Tolerability 0.03, 0.1, 0.3, 1.0 mg/kg IV in 5% ethanol/10% propylene glycol/20% Solutol HS 15, 4 days (Example Q). The following applies: 5% ethanol/10% propylene glycol/20% Solutol HS 15 (heading). The protocol: as §1, with “Using the techniques described above in Example A, an aqueous vehicle comprising 5% ethanol (v/v), 10% propylene glycol (v/v), and 10% Solutol® HS 15 (v/v) was prepared. An appropriate amount of salinomycin sodium was dissolved into the vehicle to make solutions having concentrations of 0.006, 0.02, 0.06, and 0.2 mg/mL. Ten male ICR” for “Eight male ICR”, “animal number was marked on” for “animal number marked on”
as §5, §3

Consider `CC[C@@H](C(=O)[C@@H](C)[C@@H](O)[C@H](C)[C@@H]1O[C@@H]([C@@H](CC)C(=O)O)CC[C@@H]1C)[C@H]1O[C@]2(C=C[C@@H](O)[C@]3(CC[C@@](C)([C@H]4CC[C@](O)(CC)[C@H](C)O4)O3)O2)[C@H](C)C[C@@H]1C` [salinomycin sodium], for which the Abnormalities detected entry in series [1] (0.3, 0.6, 1.0 mg/kg IV bolus once daily 5 days) is listed as “no abnormalities”. The “Body weight change relative to Day 1” value in series [1] (0.3, 0.6, 1.0 mg/kg IV bolus once daily 5 days, FIG. 1) is on record as “all groups added weight”; in series [2] (0.1, 0.3 mg/kg IV once daily 5 days, FIG. 4) it was “all groups added weight”; in series [3] (0.1, 0.3 mg/kg IV once daily 5 days, FIG. 5) it was “all groups added weight”. Also, in series [1] (IV once daily 5 days), the “Dose that can be safely dosed” value was 1 mg/kg. Also, the Clinical observations entry in series [2] (0.1 mg/kg IV once daily 5 days) was “decreased activity (e.g., more time spent laying prostrate), rapid breathing, and partially-closed eyelids”; in series [2] (0.3 mg/kg IV once daily 5 days) it was “decreased activity levels, partially-closed eyelids, and skin cold to the touch”; in series [3] (0.1 mg/kg IV once daily 5 days), “decreased activity immediately after dosing on day 1”; in series [3] (0.3 mg/kg IV once daily 5 days) it was “hypersensitivity to touch after dosing on day 1”; in series [4] (0.1 mg/kg IV once daily 4 days), “no abnormalities”; in series [4] (0.3 mg/kg IV once daily 4 days), “no abnormalities”. In addition, the Clinical observations entry in series [4] (1.0 mg/kg IV once daily 4 days, after the first administration, no abnormalities on days 2, 3, 4) was “decreased activity, decreased grasping, and laying prostrate”; in series [5] (0.1 mg/kg IV once daily 4 days), “no abnormalities”; in series [5] (0.3 mg/kg IV once daily 4 days), “no abnormalities”; in series [5] (1 mg/kg IV once daily 4 days, no abnormalities on days 2, 3, 4), “decrease in activity after initial administration”; in series [6] (0.03 mg/kg IV once daily 4 days), “no abnormalities”; in series [6] (0.1 mg/kg IV once daily 4 days, after administration, no abnormalities on days 2, 3, 4), “decreased activity and discolored urine (red)”. For the same compound, the Clinical observations entry in series [6] (0.3 mg/kg IV once daily 4 days, after administration, no abnormalities on days 2, 3, 4) is “decreased activity and discolored urine (red)”. Moreover, the Mortality result in series [4] (3.0 mg/kg IV) and in series [6] (1.0 mg/kg IV) was “died shortly after administration” in each case. Moreover, the Body weight entry in series [4] (each group surviving administration, IV once daily 4 days, FIG. 7) is listed as “relatively stable”; in series [5] (0.1, 0.3, 1 mg/kg IV once daily 4 days, FIG. 9) it was “increased”; in series [6] (each group surviving administration, IV once daily 4 days, FIG. 10), “relatively stable”.
